These are literature values, as cited in patent US20180055935A1, “METHOD FOR THE PRODUCTION OF A FORMULATION OF A HYPERICIN SALT” (Sanochemia Pharmazeutika AG, priority 2015, published 2018).

This data set relates to bladder carcinoma. Particulars: hypericin 30 μM using polyethylene glycol, 595 nm, 25 up to 50 mW/cm^2.

`Cc1cc(O)c2c(=O)c3c(O)cc(O)c4c5c(O)cc(O)c6c(=O)c7c(O)cc(C)c8c1c2c(c34)c(c78)c65` [hypericin, 1,3,4,6,8,13-hexahydroxy-10, 11-dimethylphenanthro (1,10,9,8-opqra)perylene-7, 14-dione]: the tumor cells killed result is recorded as “up to 98%”.
